Earlier results in patent US20100158905A1, “COMBINATION THERAPY OF ARTHRITIS WITH TRANILAST” (NUON THERAPEUTICS, INC., priority 2008, published 2010).

Test system: rheumatoid arthritis
Conditions: usual maintenance dose

| Compound | Approximate time to benefit |
| --- | --- |
| O=C(O)c1cc(/N=N/c2ccc(S(=O)(=O)Nc3ccccn3)cc2)ccc1O [Sulfasalazine] | 1-3 months |
| Etanercept | A few days to 12 weeks |
| Cc1oncc1C(=O)Nc1ccc(C(F)(F)F)cc1 [Leflunomide] | 4-12 weeks (skewed earlier) |
| CC(C)(S)[C@@H](N)C(=O)O [D-penicillamine] | 3-6 months |
| CCN(CCO)CCCC(C)Nc1ccnc2cc(Cl)ccc12 (stereo not shown) [Hydroxychloroquine] | 2-6 months |
| Cn1cnc([N+](=O)[O-])c1Sc1ncnc2nc[nH]c12 [Azathioprine] | 2-3 months |
| CN(Cc1cnc2nc(N)nc(N)c2n1)c1ccc(C(=O)N[C@@H](CCC(=O)O)C(=O)O)cc1 [Methotrexate] | 1-2 months |

Test system: RA
Conditions: used in combination with methotrexate

| Compound | improvements in treating RA |
| --- | --- |
| Etanercept | marked improvements |
| Adalimumab | marked improvements |
| infliximab: tumor necrosis factor (TNF) antagonist | marked improvements |
